Earlier results on one compound are cited in US20130202712A1, “Compositions And Methods For Treating Or Preventing Immuno-Inflammatory Disease” (VINDICO NANOBIO TECHNOLOGY, INC., priority 2010, published 2013).

The conditions of the data set: free resveratrol.

The structures appear in SMILES notation.

Consider `Oc1ccc(C=Cc2cc(O)cc(O)c2)cc1` [resveratrol, 3,5,4′-trihydroxystilbene], for which the Solubility in water result was “very low solubility in water”.
